SMILES strings stand for the structures. Like-named read-outs stand apart in the source and are kept apart here.

3 molecules from patent US20240358848A1, “ANTITUMOR COMPOUND AND USE THEREOF” (priority 2021, published 2024) can be followed below.

For this test, the system named is KPL-4 Cells. In words: Cell proliferation inhibition assay (CellTiter-Glo, 72 h). The format is cell-based. How it is done: KPL-4 Cells in the logarithmic phase of growth were collected and re-suspended with fresh RPMI1640 complete cell culture medium, and adjusted to 2×10^4 cells/mL after cell counting. Cells were seeded into 96-well cell culture plates at 100 μL/well, and placed in a CO2 incubator (37° C., 5% CO2) overnight. In the next day, one of the cell culture plates were taken out, balanced to room temperature, and CellTiter-Glo reagent (Promega, USA), which was pre-balanced to room temperature and evenly mixed, was added into the plate at 100 μl/well. The plate was kept in dark for 30 min, and then luminescence value was read with a microplate reader (denoted as G0 value). The other cell culture plates were taken out and added with different concentrations of test compounds or DMSO (final concentration 0.5%) in corresponding wells. After incubated for 72 h in a CO2 incubator, the cell culture plates were balanced to room temperature and tested for cell viabilities using CellTiter-Glo reagent as described above (denoted as G3 value).
The cell proliferation rates were calculated using the following formula: Cell proliferation rate (%)=(mean of G3compound−mean of G0)/(mean of G3DMSO−mean of G0)×100.
(In general: ATP-based viability assays read luminescence as a measure of living cells.)

Where [1] appears, read: KPL4, KPL-4, 72 h, read-out: GI50.

For orientation: GI50 means the concentration that inhibits growth by half. In the case of `CC[C@@]1(O)C(=O)OCc2c1cc1n(c2=O)Cc2c-1nc1cc(F)c(C)c3c1c2[C@@H](NC(=O)CO)CC3` [DXd, reference compound], where the note is “KPL4, 72 h”, halving of growth (GI50) required 72 nM.
Turning to `CC[C@@]1(O)C(=O)OCc2c1cc1n(c2=S)Cc2c-1nc1cc(F)c(C)c3c1c2[C@@H](NC(=O)CO)CC3` [X], the GI50 under setting [1] was 13.9 nM.
On to `CC[C@@]1(O)C(=O)OCc2c1cc1n(c2=S)Cc2c-1nc1cc(F)c(C)c3c1c2[C@H](NC(=O)CO)CC3` [Y], for which, under setting [1], the GI50 amounted to 10.3 nM.
